From US20120136033A1, “Small Molecule Antagonists of Phosphatidylinositol-3,4,5-Triphosphate (PIP3) and Uses Thereof” (President and Fellows of Harvard College, priority 2009, published 2012)

Key:
human cancer cells = assay: transwell (Boyden chamber) migration of cancer cells; format: cell-based; details: for inhibition of cancer cell migration: transwell / wound healing models
Procedure: Two models of cell migration were used, a transwell migration model and a wound closure model. Migration of cancer and endothelial cells was evaluated using 24-transwell Boyden chamber (Costar, Bedford, Mass.) with a polystyrene membrane (6.5 mm diameter, 10 μm thickness, and 8 μm pore size). Cells were suspended in serum-free media and seeded in the upper compartment of each well (2×10^4 cells/well) in the presence or absence of different compounds at the indicated concentrations. The lower compartment contained 600 μl of serum-free culture media supplemented with growth factors. After an 8-hr incubation at 37° C., cells were fixed and stained with 0.1% crystal violet. Non-migrating cells on the upper surface of the filter were removed, and the stained cells that migrated to the lower side were photographed using a phase-contrast microscope (Nikon, Japan) in five random fields. The cells were lysed with 10% acetic acid, and colorimetric determination was made at 595 nm using Wallac Victor 3 plate reader.

SUM159 cells = assay: cell polarization in wounded SUM159 monolayers; format: cell-based, human; details: 100 μM, 2 hr
Procedure: In order to measure cell polarization, wounds were generated in SUM159 cell monolayers, followed by serum starvation and treatment with 100 μM PIT-1, PIT-2, PIT-1i-1, or PIT-1i-2 for 2 hr. Cells were stimulated for 15 min with 100 ng/ml PDGF, fixed and stained with TRITC-phalloidin for F-actin (red), acetylated tubulin antibody (green) for microtubule organization center (MTOC), and Hoechst for nuclei (blue). Cell polarization was evaluated by analysis of the relative location of the MTOC and nucleus. […] The number of polarized cells was counted in five random fields under fluorescent microscope.

PDK1 PH domain = molecular target: T1, PDK1 PH domain (Homo sapiens, UniProt O15530); assay: FP assay, PIP3 binding to PDK1 PH domain; details: 15 nM TMR-PIP3, 100 nM PDK1 PH domain, 0-200 μM
T1 construct: 100 nM 441-551 a.a. region of human PDK1; made in house; host or cells: E. coli BL21(DE3)
T1 sequence (O15530 441-551): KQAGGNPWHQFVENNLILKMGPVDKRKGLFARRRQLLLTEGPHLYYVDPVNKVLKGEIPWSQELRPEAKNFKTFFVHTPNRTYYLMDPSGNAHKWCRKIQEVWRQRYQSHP
Procedure: FIG. 4 is a graph depicting concentration-dependent competitive inhibition of PIP3-PH domain interaction by PIT-1 and PIT-2. 15 nM TMR-conjugated PIP3 were incubated with 100 nM PDK1 PH domain in the presence or absence of the indicated concentrations of PITs (0-200 μM) for 30 min, followed by FP measurement.
In order to identify compounds that disrupt the interaction between PIP3 and PH domains, a high-throughput fluorescence polarization (FP)-binding assay was developed using recombinant 1-123 amino acid N-terminal fragment of human Akt1 (also referred to herein simply as Akt), encompassing the PH domain (PH123 protein), and fluorescent NBD-labeled PIP3 molecule. The amino acid sequence of human Akt1 is publicly available as, for example, GenBank Accession No. NP_001014432.1 (SEQ ID NO:1), and the corresponding DNA sequence is publicly available as, for example, GenBank Accession No. NM_001014432. Briefly, 5 μM recombinant GST fusion proteins containing 1-123 a.a. N-terminal fragment of human Akt1 (PH 123) or 100 nM 441-551 a.a. region of human PDK1 were incubated with 15 nM TMR-labeled PIP3, PIP2, or PIP5 in buffer containing 50 mM Tris-HCl (pH 7.5), 150 mM NaCl, and 5 mM b-ME for 15 min at room temperature in the dark. FP values were determined using Wallac Victor 3 plate reader. […]

PI3K-PDK1-Akt pathway = PI3K-PDK1-Akt pathway phosphorylation events in U87MG cells; format: cell-based, human
Procedure: The effect of PIT-1 on PIP3-mediated signaling was examined in U87MG glioblastoma cells, which show elevated basal levels of PIP3 due to the loss of PTEN. Pore N et al. (2003) Cancer Res 63:236-41.

cells = assay: subG1 DNA content; format: cell-based; details: P<0.01
Text: Since PI3K/PIP3/Akt signaling plays a critical role in the inhibition of apoptosis (Datta S R et al. (1999) Genes Dev 13:2905-27), the possibility that PITs induce apoptosis was examined. […] Proapoptotic Bcl-2 family members Bax and Bak are important mediators of apoptosis. Wei M C et al. (2001) Science 292:727-30. […] Non-apoptotic mechanisms of cell death may also play some additional, albeit less important, role in PIT-induced killing, as some cell death was still observed in Bax/Bak-deficient cells and in the presence of zVAD.fmk.

Rac1 = Rac1 activation pull-down (GST-Pak1-PBD) in SUM159 cells; format: cell-based, human; details: 2 hr, PDGF 100 ng/ml
Procedure: Rho/Rac family, especially Rac1, plays a critical role in actin polymerization, membrane ruffling/lamellipodia formation, and cell motility (Ridley A J et al. (1992) Cell 70:401-410) downstream of the GEFs, e.g., VAV family, and upstream of the WAVE family. The effect of PITs on Rac1 activation was therefore analyzed. SUM159 cells were seeded on 10 cm^2 plates and serum starved overnight, treated with different PIT compounds at a variety of concentrations for 2 hr, and then stimulated with 100 ng/ml PDGF for […]. Next, cells were rinsed once with PBS, and 1 ml lysis buffer (25 mM Tris-HCl, pH 7.5, 150 mM NaCl, 5 mM MgCl2, 1% NP-40, 1 mM DTT, 5% glycerol, 1 μg/ml aprotinin, 1 μg/ml leupeptin and 1 mM PMSF) was added per plate. The cells were scraped and transferred to a microcentrifuge tube, vortexed briefly, and incubated on ice for 5 min, followed by a centrifugation at 16,000×g at 4° C. for 15 min. The supernatant was collected. A sample of the lysate was used to ensure equal protein concentration in the samples. Next, 700 μl lysate, 20 μl glutathione-sepharose beads, and 20 μg GST-human Pak1-PBD were mixed together, and the reaction mixture was incubated at 4° C. for 1 hr with gentle rocking. The beads were then washed three times with lysis buffer, and proteins were eluted by boiling beads in 50 μl of the 2×SDS sample buffer at 95-100° C. for 5 min. […]

Row | SMILES | growth factor-induced transwell migration of human cancer cells (human cancer cells; 8 hr) | inhibition of cancer cell migration (human cancer cells) | cell polarization and lamellipodia formation induced by PDGF, wound healing model (SUM159 cells) | inhibition of binding of PIP3 to the PH domain of PDK1 (PDK1 PH domain) | activity of the PI3K-PDK1-Akt pathway in U87MG cells (PI3K-PDK1-Akt pathway) | subG1 DNA content in cells (cells) | activation of Rac1 caused by growth factor stimulation (Rac1)
1 | O=C(NC(=S)Nc1cc([N+](=O)[O-])cc(Cl)c1O)c1ccccc1 [PIT-1] | substantially inhibited | much stronger than that of Akt kinase inhibitor VIII | effective at preventing cell polarization | inhibited binding | suppressed activity | significant increase | efficiently suppressed
2 | O=C1NC(=S)S/C1=C\c1cc(O)c([N+](=O)[O-])cc1Cc1ccccc1 [PIT-2] | – | efficiently inhibited cell migration | effective at preventing cell polarization | inhibited binding | suppressed activity | significant increase | efficiently suppressed
